What was measured:
[1] = target: T1, GRP94 (Sus scrofa, UniProt Q29092); assay: GRP94 autophosphorylation assay; assay type: biochemical, porcine; settings: 180 μM NECA or radicicol in 3.6% DMSO, 5 μg/ml heparin, 5 mM GTP
T1 construct: GRP94 was purified from porcine pancreas rough microsomes; from tissue; host or cells: porcine pancreas rough microsomes (lumenal contents)
Description: (§1) Phosphorylation Assays. To assay for GRP94 autophosphorylation, 1 μM GRP94 was incubated with γ-[^32P]ATP (6000 cpm/pmol) (Amersham Pharmacia Biotech of Piscataway, N.J.), diluted with cold ATP to yield a final concentration of 0.15 mM ATP in a buffer containing 10 mM Mg(OAc)2 and 50 mM K-Hepes, pH 7.4. For the casein kinase assay, 1 unit of casein kinase II was incubated as described above, with the addition of 4 μM casein. […] The 25 μl reaction mixtures were incubated at 37° C. for 1 hour and quenched by addition of 10% trichloroacetic acid. Samples were analyzed by 10% SDS-PAGE gels and the phosphorylated species were quantitated using a Fuji MACBAS1000™ phosphorimaging system (Fuji Medical Systems of Stamford, Conn.).

[2] = target: casein kinase II (Homo sapiens, UniProt P68400); assay: Casein kinase assay; assay type: biochemical; settings: 180 μM NECA or radicicol in 3.6% DMSO, 5 μg/ml heparin, 5 mM GTP; 4 μM casein
Description: as §1

[3] = target: T1, GRP94; assay: [3H]-NECA competitive displacement assay; assay type: binding, porcine; settings: for effect of excess Mg2+ on binding to GRP94: 10 mM Mg(OAc)2 versus nominal magnesium; for nucleoside base specificity: binding to GRP94 by [3H]-NECA displacement: competitors at 50 μM
Description: Where indicated, binding reactions were performed in either buffer C (10 mM Tris, pH 7.5, 50 mM KCl, 5 mM MgCl2, 2 mM DTT, 0.01% NP-40, 20 mM Na2MoO4) or 50 mM Tris, pH 7.5, 10 mM Mg(OAc)2. […] Vacuum filtration was performed with an Amersham Pharmacia Biotech (Piscataway, N.J.) vacuum filtration manifold.
All binding reactions were performed in triplicate and corrected by subtraction of background values, determined in binding reactions lacking GRP94.

[4] = target: T1, GRP94; assay: Tryptophan fluorescence (tertiary conformational state); assay type: biochemical, porcine; settings: 50 μM NECA, 50 μM geldanamycin, 2.5 mM ATP or 2.5 mM ADP; 1 h 37° C.
Description: Tryptophan Fluorescence. Tryptophan fluorescence measurements were conducted in a FLUOROMAX™ spectrofluorometer (Spex Industries, Inc. of Edison, N.J.) with the slit widths set to 1 nm for both excitation and emission. […] All spectra were corrected by subtraction of buffer or buffer plus ligand samples. GRP94 (50 μg/ml) was incubated in buffer A supplemented with 10 mM Mg(OAc)2 and the following concentrations of ligands for 1 hour at 37° C. […] Samples were then cooled to room temperature, transferred to a quartz cuvette, and the spectra collected.

[5] = target: HSP90 (Saccharomyces cerevisiae, UniProt P02829); settings: cited from earlier work
[6] = target: T1, GRP94; assay: Fluorophore binding to native and heat shocked GRP94 (fluorescence emission); set-up: species or system porcine; settings: for fluorophore binding to native versus heat shocked GRP94 (fluorescence emission): 0.5 μM GRP94, 5 μM probe, 37° C.
Description: Fluorophore Binding Reactions.
Fluorescence Measurements. […] All spectra were background corrected.
To characterize the structural basis for the heat shock dependent activation of GRP94 activity, the interaction of polarity-sensitive fluorophores with native and heat shocked GRP94 was examined. The three probes tested, Prodan (6-propionyl-2-(dimethylamino)naphthalene), 8-ANS (1,8-anilinonaphthalenesulfonate) and bis-ANS (bis(1,8-anilino-naphthalenesulfonate) are structurally related probes that bind to hydrophobic sites on proteins and undergo substantial fluorescence spectrum changes upon introduction into nonpolar environments, as discussed by Rosen & Weber (1969) Biochemistry 8:3915-3920; Weber & Farris (1979) Biochemistry 18:3075-3078; Takashi et al. (1977) Proc Natl Acad Sci USA 74:2334-2338; Shi et al. (1994) Biochemistry 33:7536-7546. The following experimental protocol was utilized. GRP94 was warmed to 37° C. and either maintained at 37° C. or heat shocked for 15 minutes at 50° C., followed by incubation at 37° C. Subsequently, probe stocks were added to the GRP94 stocks and emission spectra recorded after 30 min at 37° C.
Under the experimental conditions used in this series of experiments, bis-ANS binding to GRP94 was near maximal at a 20-fold molar excess of GRP94 monomer over bis-ANS, with half maximal binding observed at 110 nM GRP94 (FIG. 2B).

T1 sequence (Q29092 22-804): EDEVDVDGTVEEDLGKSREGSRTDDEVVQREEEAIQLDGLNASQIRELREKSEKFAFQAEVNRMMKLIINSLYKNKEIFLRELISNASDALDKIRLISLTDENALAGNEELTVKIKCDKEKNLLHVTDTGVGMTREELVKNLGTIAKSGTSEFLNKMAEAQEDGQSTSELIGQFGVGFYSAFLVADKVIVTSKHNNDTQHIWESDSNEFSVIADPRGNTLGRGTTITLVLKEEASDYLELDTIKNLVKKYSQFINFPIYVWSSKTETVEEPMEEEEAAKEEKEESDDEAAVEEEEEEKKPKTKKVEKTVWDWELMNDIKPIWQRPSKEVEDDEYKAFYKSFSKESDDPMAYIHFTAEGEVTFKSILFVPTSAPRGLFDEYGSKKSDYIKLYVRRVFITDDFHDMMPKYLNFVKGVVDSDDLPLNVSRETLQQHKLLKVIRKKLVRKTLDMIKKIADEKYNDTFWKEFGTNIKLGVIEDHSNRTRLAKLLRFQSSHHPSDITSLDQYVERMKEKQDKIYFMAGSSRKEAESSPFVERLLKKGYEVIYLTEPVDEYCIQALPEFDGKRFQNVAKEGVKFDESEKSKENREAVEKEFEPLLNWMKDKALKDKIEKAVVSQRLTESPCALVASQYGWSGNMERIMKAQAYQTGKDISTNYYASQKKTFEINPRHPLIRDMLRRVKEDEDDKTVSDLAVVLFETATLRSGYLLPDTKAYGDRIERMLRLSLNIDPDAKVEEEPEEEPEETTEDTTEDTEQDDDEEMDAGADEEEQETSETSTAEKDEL
Chain of casein kinase II (P68400 whole entry): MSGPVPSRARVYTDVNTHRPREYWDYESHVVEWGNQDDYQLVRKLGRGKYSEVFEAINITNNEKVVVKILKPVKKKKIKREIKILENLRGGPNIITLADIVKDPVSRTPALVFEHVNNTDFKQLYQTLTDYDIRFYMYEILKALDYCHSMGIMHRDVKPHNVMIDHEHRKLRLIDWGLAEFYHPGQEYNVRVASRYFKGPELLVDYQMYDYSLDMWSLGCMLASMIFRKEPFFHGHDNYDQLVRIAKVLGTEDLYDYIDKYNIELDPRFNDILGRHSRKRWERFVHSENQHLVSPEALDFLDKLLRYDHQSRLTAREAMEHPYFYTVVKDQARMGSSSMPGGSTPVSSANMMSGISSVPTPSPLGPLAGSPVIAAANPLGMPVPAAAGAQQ
Chain of casein kinase II (P67870 whole entry partner): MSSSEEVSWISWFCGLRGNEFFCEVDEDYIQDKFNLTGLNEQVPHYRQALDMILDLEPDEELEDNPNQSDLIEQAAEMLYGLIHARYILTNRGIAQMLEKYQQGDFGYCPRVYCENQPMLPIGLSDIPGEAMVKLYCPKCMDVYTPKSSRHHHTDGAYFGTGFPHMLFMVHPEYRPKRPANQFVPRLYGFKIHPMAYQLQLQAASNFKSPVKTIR
Chain of HSP90 (P02829 whole entry): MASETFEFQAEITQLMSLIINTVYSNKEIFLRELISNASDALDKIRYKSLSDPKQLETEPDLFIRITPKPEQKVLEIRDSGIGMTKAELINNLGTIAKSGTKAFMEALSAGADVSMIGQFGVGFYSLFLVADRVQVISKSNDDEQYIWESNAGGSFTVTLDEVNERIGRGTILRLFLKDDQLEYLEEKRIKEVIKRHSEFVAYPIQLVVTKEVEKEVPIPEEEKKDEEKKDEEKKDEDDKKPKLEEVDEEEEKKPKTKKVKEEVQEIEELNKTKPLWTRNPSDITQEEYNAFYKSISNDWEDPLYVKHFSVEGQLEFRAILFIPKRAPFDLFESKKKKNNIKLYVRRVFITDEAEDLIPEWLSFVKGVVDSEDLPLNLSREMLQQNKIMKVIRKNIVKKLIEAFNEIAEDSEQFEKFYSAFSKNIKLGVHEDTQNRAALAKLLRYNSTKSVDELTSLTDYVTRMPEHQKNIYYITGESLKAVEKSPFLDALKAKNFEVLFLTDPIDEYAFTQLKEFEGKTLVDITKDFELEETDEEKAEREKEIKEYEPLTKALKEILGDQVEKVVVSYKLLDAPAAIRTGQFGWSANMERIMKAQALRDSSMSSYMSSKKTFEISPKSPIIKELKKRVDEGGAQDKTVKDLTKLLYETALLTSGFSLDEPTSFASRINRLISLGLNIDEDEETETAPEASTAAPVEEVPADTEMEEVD

## Heparin
[1]
  inhibition of GRP94 autophosphorylation (GRP94-derived kinase) activity: markedly attenuated GRP94-derived and casein kinase II activity
[2]
  inhibition of casein kinase II activity: markedly attenuated GRP94-derived and casein kinase II activity

## Nc1ncnc2c1ncn2[C@@H]1O[C@H](COP(=O)(O)O)[C@@H](O)[C@H]1O [AMP]
[3]
  effect of excess Mg2+ on binding to GRP94: markedly stimulated the binding of ATP, ADP and AMP

## Nc1ncnc2c1ncn2[C@H]1C[C@H](O)[C@@H](COP(=O)(O)OP(=O)(O)OP(=O)(O)O)O1 [deoxyATP]
[3]
  nucleoside base specificity: binding to GRP94 by [3H]-NECA displacement: GRP94 could bind both ATP and deoxyATP

## Nc1ncnc2c1ncn2[C@@H]1O[C@H](COP(=O)(O)OP(=O)(O)O)[C@@H](O)[C@H]1O [ADP]
[3]
  effect of excess Mg2+ on binding to GRP94: markedly stimulated the binding of ATP, ADP and AMP
[3]; excess Mg2+
  relative affinities for GRP94 in presence of Mg2+: nearly identical relative affinities
[4]
  change of GRP94 tryptophan fluorescence: the tryptophan fluorescence was decreased
[5]; Prodromou et al. (1997)
  affinity of N-terminal domain of Hsp90, ADP relative to ATP: four-fold higher affinity than that observed for ATP

## Nc1ccn([C@@H]2O[C@H](COP(=O)(O)OP(=O)(O)OP(=O)(O)O)[C@@H](O)[C@H]2O)c(=O)n1 [CTP]
[3]
  nucleoside base specificity: binding to GRP94 by [3H]-NECA displacement: little to no binding

## Nc1nc2c(ncn2[C@@H]2O[C@H](COP(=O)(O)OP(=O)(O)OP(=O)(O)O)[C@@H](O)[C@H]2O)c(=O)[nH]1 [GTP]
[3]
  nucleoside base specificity: binding to GRP94 by [3H]-NECA displacement: little to no binding
[1]
  inhibition of GRP94 autophosphorylation (GRP94-derived kinase) activity: markedly attenuated GRP94-derived and casein kinase II activity
[2]
  inhibition of casein kinase II activity: markedly attenuated GRP94-derived and casein kinase II activity

## O=c1ccn([C@@H]2O[C@H](COP(=O)(O)OP(=O)(O)OP(=O)(O)O)[C@@H](O)[C@H]2O)c(=O)[nH]1 [UTP]
[3]
  nucleoside base specificity: binding to GRP94 by [3H]-NECA displacement: little to no binding

## O=S(=O)(O)c1cccc2cccc(Nc3ccccc3)c12 [8-ANS, 1,8-anilinonaphthalenesulfonate]
[6]
  agonist activity for GRP94 activation: functions solely as an indicator and lacks agonist activity
  fluorophore binding to native versus heat shocked GRP94 (fluorescence emission): displays weak interactions with native GRP94, yet binds avidly following heat shock

## C[C@@H]1C[C@H]2O[C@@H]2/C=C\C=C\C(=O)Cc2c(Cl)c(O)cc(O)c2C(=O)O1 [radicicol]
[2]
  inhibition of casein kinase II activity: neither NECA nor radicicol, both of which bind to the N-terminal nucleotide binding domain of GRP94, significantly inhibit GRP94 derived or casein kinase II activity below the solvent background
[5]; Roe et al. (1999)
  binding stoichiometry to Hsp90: 2 mol radicicol/mol Hsp90 dimer

## CCC(=O)c1ccc2cc(N(C)C)ccc2c1 [Prodan, 6-propionyl-2-(dimethylamino)naphthalene]
[6]
  fluorophore binding to native versus heat shocked GRP94 (fluorescence emission): does not interact with the hydrophobic binding pocket(s) displayed by heat shocked GRP94

## Nc1ncnc2c1ncn2[C@@H]1O[C@H](CO)[C@@H](O)[C@H]1O [adenosine]
[3]
  relative displacement activity in [3H]-NECA competition: relative displacement activity approximating that observed for ADP
  effect of excess Mg2+ on binding to GRP94: without effect on the binding of NECA or adenosine to GRP94

Source: patent US7691969B2, “Isolated GRP94 ligand binding domain polypeptide and nucleic acid encoding same, crystalline form of same, and screening methods employing same” (Duke University, priority 2001, dated 2010)
